We go through 28 compounds from patent US20240158392A1 (Janssen Biotech, Inc., priority 2021, published 2024).

For orientation: IC50 means the concentration that inhibits the measured activity by half.

For the first assay, the target named is SIK2 (Homo sapiens, UniProt Q9H0K1). Description: SIK2 Enzymatic Assay High Version 2 (High ATP). The assay is classed as biochemical.
Sequence of SIK2 (Q9H0K1 whole entry, species assumed): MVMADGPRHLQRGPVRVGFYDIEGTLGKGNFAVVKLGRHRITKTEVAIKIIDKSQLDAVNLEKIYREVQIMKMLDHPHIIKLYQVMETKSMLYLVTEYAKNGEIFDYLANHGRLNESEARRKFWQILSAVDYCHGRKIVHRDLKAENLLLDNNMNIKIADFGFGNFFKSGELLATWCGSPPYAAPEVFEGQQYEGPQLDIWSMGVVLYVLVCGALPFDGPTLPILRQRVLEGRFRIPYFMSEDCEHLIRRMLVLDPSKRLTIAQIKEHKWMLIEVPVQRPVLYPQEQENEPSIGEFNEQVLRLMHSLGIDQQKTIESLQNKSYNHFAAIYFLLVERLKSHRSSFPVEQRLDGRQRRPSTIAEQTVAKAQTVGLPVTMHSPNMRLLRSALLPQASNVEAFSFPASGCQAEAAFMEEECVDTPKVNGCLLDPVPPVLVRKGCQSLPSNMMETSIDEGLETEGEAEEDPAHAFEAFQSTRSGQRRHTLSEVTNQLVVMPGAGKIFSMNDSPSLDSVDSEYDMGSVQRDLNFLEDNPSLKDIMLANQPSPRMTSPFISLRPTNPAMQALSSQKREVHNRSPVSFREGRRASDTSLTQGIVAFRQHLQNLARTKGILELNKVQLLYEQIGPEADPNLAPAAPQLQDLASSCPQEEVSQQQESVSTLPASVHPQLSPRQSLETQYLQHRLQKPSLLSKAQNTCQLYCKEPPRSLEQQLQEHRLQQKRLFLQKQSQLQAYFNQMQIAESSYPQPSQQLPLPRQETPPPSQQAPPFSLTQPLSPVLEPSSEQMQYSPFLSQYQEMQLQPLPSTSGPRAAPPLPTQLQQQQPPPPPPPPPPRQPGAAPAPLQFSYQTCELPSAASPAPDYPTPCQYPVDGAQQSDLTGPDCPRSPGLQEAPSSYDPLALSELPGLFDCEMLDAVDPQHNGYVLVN
Details: not given
A digest of the protocol: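 At room temperature, enzyme (6 nM, 2× final) was preincubated with compound for 30 min, then 6 mM ATP and 400 μM HDAC5tide (both 2× final) were added for 2 h. ADP formed was measured by ADP-Glo Max (2 h reagent, 1 h detection) using luminescence.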
The compound `Cc1cc(-c2ccn3nc(Nc4ccnnc4)cc3c2)c(O[C@H]2C[C@H]3COC[C@@H](C2)N3C)cn1` [Example 408, 5-[2-methyl-5-[[(1S,5R,7s)-9-methyl-3-oxa-9-azabicyclo[3.3.1]nonan-7-yl]oxy]-4-pyridyl]-N-pyridazin-4-yl-pyrazolo[1,5-a]pyridin-2-amine] returned an IC50 of 0.001 µM.

For `Cc1cnc(Nc2cc3cc(-c4cc(C)ncc4O[C@H]4C[C@H]5COC[C@@H](C4)N5C)ccn3n2)cn1` [Example 416, 5-[2-methyl-5-[[(1S,5R,7s)-9-methyl-3-oxa-9-azabicyclo[3.3.1]nonan-7-yl]oxy]-4-pyridyl]-N-(5-methylpyrazin-2-yl)pyrazolo[1,5-a]pyridin-2-amine], the IC50 was less than 0.000847 µM.

For the compound `Cc1cc(Nc2cc3cc(-c4cc(C(F)(F)F)ncc4OC[C@H]4CCN4C)ccn3n2)nc(C)n1` [Example 625, N-(2,6-dimethylpyrimidin-4-yl)-5-[5-[[(2R)-1-methylazetidin-2-yl]methoxy]-2-(trifluoromethyl)-4-pyridyl]pyrazolo[1,5-a]pyridin-2-amine], the IC50 was found to be 0.73 µM.

The compound `Cc1cc(-c2ccn3nc(Nc4nccc(C)c4F)cc3c2)c(O[C@H]2C[C@H]3COC[C@@H](C2)N3)cn1` [Example 338, N-(3-fluoro-4-methyl-2-pyridyl)-5-[2-methyl-5-[[(1S,5R)-3-oxa-9-azabicyclo[3.3.1]nonan-7-yl]oxy]-4-pyridyl]pyrazolo[1,5-a]pyridin-2-amine] displayed an IC50 of 0.00325 µM.

In the case of `Cc1cc(-c2cn3cc(Nc4cncc(C)n4)nc3cn2)c(O[C@H]2C[C@H]3COC[C@@H](C2)N3)cn1` [Example 321, 6-[2-methyl-5-[[(1S,5R)-3-oxa-9-azabicyclo[3.3.1]nonan-7-yl]oxy]-4-pyridyl]-N-(6-methylpyrazin-2-yl)imidazo[1,2-a]pyrazin-2-amine], the IC50 was less than 0.000847 µM.

As for `CNC(=O)c1ccnc(Nc2cc3cc(-c4cc(C)ncc4O[C@H]4C[C@H]5COC[C@@H](C4)N5C)ccn3n2)c1` [Example 409, N-methyl-2-[[5-[2-methyl-5-[[(1S,5R,7s)-9-methyl-3-oxa-9-azabicyclo[3.3.1]nonan-7-yl]oxy]-4-pyridyl]pyrazolo[1,5-a]pyridin-2-yl]amino]pyridine-4-carboxamide], the IC50 is less than 0.000847 µM.

For the compound `CC#Cc1cc(-c2ccn3nc(NC(=O)C4CC4)cc3c2)c(O[C@@H]2C[C@H]3COC[C@@H](C2)N3)cn1` [Example 439, N-[5-[5-[[(1S,5R)-3-oxa-9-azabicyclo[3.3.1]nonan-7-yl]oxy]-2-prop-1-ynyl-4-pyridyl]pyrazolo[1,5-a]pyridin-2-yl]cyclopropanecarboxamide], the IC50 stood at 0.00103 µM.

Compound `Cc1cc(-c2ccn3nc(NC(=O)C4CC4)cc3c2)c(O[C@H]2C[C@@](C)(N)C2)cn1` [Example 517, N-[5-[5-(3-amino-3-methyl-cyclobutoxy)-2-methyl-4-pyridyl]pyrazolo[1,5-a]pyridin-2-yl]cyclopropanecarboxamide] had an IC50 of 0.016 µM.

Still in this assay, the particulars now being: enzyme 6 nM, 6 mM ATP and 400 μM HDAC5tide (each 2× final concentration); 30 minutes pre-incubation, 2 hours; ADP-Glo Max luminescence; read-out: SIK2 high ATP IC50 (μM) (Test Example 2).
Turning to `Cc1cc(-c2ccn3nc(Nc4cc(C)nc(C)n4)cc3c2)c(OC[C@H]2C[C@H](O)CO2)cn1` [Example 609, (3S,5R)-5-[[4-[2-[(2,6-dimethylpyrimidin-4-yl)amino]pyrazolo[1,5-a]pyridin-5-yl]-6-methyl-3-pyridyl]oxymethyl]tetrahydrofuran-3-ol], the IC50 amounted to 0.0797 µM.

For `Cc1cc(-c2ccn3nc(Nc4cccnn4)cc3c2)c(OC[C@@H]2CNCC(C)(C)O2)cn1` [Example 518, 5-[5-[[(2S)-6,6-dimethylmorpholin-2-yl]methoxy]-2-methyl-4-pyridyl]-N-pyridazin-3-yl-pyrazolo[1,5-a]pyridin-2-amine], the IC50 is 0.0559 µM.

With `Cc1cc(-c2ccn3nc(Nc4cc(C)nc(C(=O)NC5CC5)n4)cc3c2)c(OCC(C)(C)O)cn1` [Example 640, N-cyclopropyl-4-[[5-[5-(2-hydroxy-2-methyl-propoxy)-2-methyl-4-pyridyl]pyrazolo[1,5-a]pyridin-2-yl]amino]-6-methyl-pyrimidine-2-carboxamide], the 50% inhibitory concentration (IC50) was found to be 0.0295 µM.

Consider `Cc1cc(-c2ccn3nc(Nc4cc(C)nc(C)n4)cc3c2)c(OCc2ccccc2OC(F)F)cn1` [Example 553, 5-[5-[[2-(difluoromethoxy)phenyl]methoxy]-2-methyl-4-pyridyl]-N-(2,6-dimethylpyrimidin-4-yl)pyrazolo[1,5-a]pyridin-2-amine], for which the IC50 is 0.0101 µM.

For `Cc1cnc(Nc2cc3cc(-c4cc(OC(F)F)ncc4OCC(C)(C)C#N)ccn3n2)cn1` [Example 709, 3-[[6-(difluoromethoxy)-4-[2-[(5-methylpyrazin-2-yl)amino]pyrazolo[1,5-a]pyridin-5-yl]-3-pyridyl]oxy]-2,2-dimethyl-propanenitrile], the IC50 was 0.00302 µM.

With `Cc1cc(-c2ccn3nc(Nc4cc(C)c(C(=O)NC5CC5)c(C)c4)cc3c2)c(OCC(C)(C)O)cn1` [Example 326, N-cyclopropyl-4-[[5-[5-(2-hydroxy-2-methyl-propoxy)-2-methyl-4-pyridyl]pyrazolo[1,5-a]pyridin-2-yl]amino]-2,6-dimethyl-benzamide], the IC50 came to 0.0362 µM.

Regarding `CNC(=O)c1cc(C)nc(Nc2cc3cc(-c4cc(OC(F)F)ncc4OCC(C)(C)C#N)ccn3n2)c1` [Example 715, 2-[[5-[5-(2-cyano-2-methyl-propoxy)-2-(difluoromethoxy)-4-pyridyl]pyrazolo[1,5-a]pyridin-2-yl]amino]-N,6-dimethyl-pyridine-4-carboxamide], the IC50 came out at 0.011 µM.

In the case of `CC#Cc1cc(-c2ccn3nc(Nc4cnn(C)c4)cc3c2)c(OC[C@H]2OCC[C@@H]2O)cn1` [Example 300, (2R,3S)-2-[[4-[2-[(1-methylpyrazol-4-yl)amino]pyrazolo[1,5-a]pyridin-5-yl]-6-prop-1-ynyl-3-pyridyl]oxymethyl]tetrahydrofuran-3-ol], the 50% inhibitory concentration (IC50) was found to be 0.00639 µM.

As to `Cc1cc(-c2ccn3nc(Nc4ccc(C)nn4)cc3c2)c(OCC(C)(C)O)cn1` [Example 612, 2-methyl-1-[[6-methyl-4-[2-[(6-methylpyridazin-3-yl)amino]pyrazolo[1,5-a]pyridin-5-yl]-3-pyridyl]oxy]propan-2-ol], the IC50 came out at 0.115 µM.

For the compound `CCC1(COc2cnc(C)cc2-c2ccn3nc(Nc4cc(C)nc(C)n4)cc3c2)COC1` [Example 273, N-(2,6-dimethylpyrimidin-4-yl)-5-[5-[(3-ethyloxetan-3-yl)methoxy]-2-methyl-4-pyridyl]pyrazolo[1,5-a]pyridin-2-amine], the IC50 was found to be 0.037 µM.

On to `Cc1cc(-c2ccn3nc(NC(=O)C4CC4)cc3c2)c(OCC(C)(N)C(F)(F)F)cn1` (single isomer, unassigned) [Example 159, (*R)—N-[5-[5-(2-amino-3,3,3-trifluoro-2-methyl-propoxy)-2-methyl-4-pyridyl]pyrazolo[1,5-a]pyridin-2-yl]cyclopropanecarboxamide], for which the IC50 is 0.0107 µM.

Regarding `Cc1cnc(Nc2cc3cc(-c4cc(C)ncc4OC[C@]45C[C@H](CO4)N(C)C5)ccn3n2)cn1` [Example 236, 5-[2-methyl-5-[[(1R,4R)-2-methyl-5-oxa-2-azabicyclo[2.2.1]heptan-4-yl]methoxy]-4-pyridyl]-N-(5-methylpyrazin-2-yl)pyrazolo[1,5-a]pyridin-2-amine], the IC50 turned out to be 0.0172 µM.

Turning to `CC(C)(C#N)COc1cnc(OC(F)F)cc1-c1ccn2nc(Nc3cc4n(n3)CCNC4)cc2c1` [Example 706, 3-[[6-(difluoromethoxy)-4-[2-(4,5,6,7-tetrahydropyrazolo[1,5-a]pyrazin-2-ylamino)pyrazolo[1,5-a]pyridin-5-yl]-3-pyridyl]oxy]-2,2-dimethyl-propanenitrile], the IC50 amounted to 0.0755 µM.

`CC(=O)O[C@H]1CC[C@H](Oc2nnc(C)cc2-c2ccn3nc(Nc4cc(C)nc(C)n4)cc3c2)CC1` [Example 487, [4-[4-[2-[(2,6-dimethylpyrimidin-4-yl)amino]pyrazolo[1,5-a]pyridin-5-yl]-6-methyl-pyridazin-3-yl]oxycyclohexyl] acetate]: the IC50 came to 0.0238 µM.

For the compound `Cc1cc(-c2ccn3nc(Nc4cnn(C)c4)cc3c2)c(OC[C@@H]2CNCCO2)cn1` [Example 128, 5-[2-methyl-5-[[(2S)-morpholin-2-yl]methoxy]-4-pyridyl]-N-(1-methylpyrazol-4-yl)pyrazolo[1,5-a]pyridin-2-amine], the IC50 came to 0.0249 µM.

With `Cc1cc(Nc2cc3cc(-c4cc(OCC(F)(F)F)ncc4OCC(C)(C)O)ccn3n2)nc(C)n1` [Example 661, 1-[[4-[2-[(2,6-dimethylpyrimidin-4-yl)amino]pyrazolo[1,5-a]pyridin-5-yl]-6-(2,2,2-trifluoroethoxy)-3-pyridyl]oxy]-2-methyl-propan-2-ol], the IC50 was found to be 0.0749 µM.

Turning to `CO[C@@]1(COc2cnc(C)cc2-c2ccn3nc(NC(=O)C4CC4)cc3c2)CCNC1` (single isomer, unassigned) [Example 215, (*S)—N-[5-[5-[(3-methoxypyrrolidin-3-yl)methoxy]-2-methyl-4-pyridyl]pyrazolo[1,5-a]pyridin-2-yl]cyclopropanecarboxamide], the half-inhibitory concentration (IC50) was 0.0037 µM.

With `CC#Cc1cc(-c2ccn3nc(NC(=O)C4CC4)cc3c2)c(OCC2(N)COC2)cn1` [Example 433, N-[5-[5-[(3-aminooxetan-3-yl)methoxy]-2-prop-1-ynyl-4-pyridyl]pyrazolo[1,5-a]pyridin-2-yl]cyclopropanecarboxamide], the IC50 is less than 0.000847 µM.

As for `CC(C)(C#N)COc1cnc(OCC(F)(F)F)cc1-c1ccn2nc(NC(=O)C3CC3)cc2c1` [Example 669, N-[5-[5-(2-cyano-2-methyl-propoxy)-2-(2,2,2-trifluoroethoxy)-4-pyridyl]pyrazolo[1,5-a]pyridin-2-yl]cyclopropanecarboxamide], the IC50 was determined as 0.0526 µM.

For `CC(C)(C#N)COc1cnc(OCC(F)F)cc1-c1ccn2nc(Nc3cnccn3)cc2c1` [Example 689, 3-[[6-(2,2-difluoroethoxy)-4-[2-(pyrazin-2-ylamino)pyrazolo[1,5-a]pyridin-5-yl]-3-pyridyl]oxy]-2,2-dimethyl-propanenitrile], the IC50 is 0.00136 µM.
